Results on 1 sequence are retold here after ChEMBL document CHEMBL1275551, “Identification of the genetic basis for clinical menadione-auxotrophic small-colony variant isolates of Staphylococcus aureus” (Antimicrob Agents Chemother, 2008).

Common to all, as to assay type: functional, organism-based
Test [1] relates to Staphylococcus aureus. In words: Antibacterial activity against small-colony variant Staphylococcus aureus isolate OM299/1 harboring -1 frame shift mutation in 687 nucleotide of menB gene by Etest method.
For test [2], the system named is Staphylococcus aureus. In words: Antibacterial activity against Staphylococcus aureus isolate OM299/1 by Etest method.
Test [3] has as its system Staphylococcus aureus. Put plainly: Antibacterial activity against small-colony variant Staphylococcus aureus isolate A22616/5 harboring 55-63 nucleotide deletion in menB gene by Etest method.
In test [4] the test system is Staphylococcus aureus. In words: Antibacterial activity against Staphylococcus aureus isolate A22616/5 by Etest method.
The test system of test [5] is Staphylococcus aureus. Put plainly: Antibacterial activity against Staphylococcus aureus isolate OM1a by Etest method.
Test [6] has as its system Staphylococcus aureus. Put plainly: Antibacterial activity against small-colony variant Staphylococcus aureus isolate OM1b harboring menB G698T Gly233Val mutant gene by Etest method.
Test [7] deals with Staphylococcus aureus. In words: Antibacterial activity against phenotypic revertant Staphylococcus aureus OM1b:F2 harboring G698C Val233Ala compensatory mutation in menB gene by Etest method.
The subject of test [8] is Staphylococcus aureus. Put plainly: Antibacterial activity against wild type Staphylococcus aureus OM1b:F5 phenotypic revertant by Etest method.
Test [9] has as its system Staphylococcus aureus. In words: Antibacterial activity against phenotypic revertant Staphylococcus aureus OM1b:F8 harboring 694-702 nucleotide deletion in menB gene by Etest method.
Test [10] relates to Staphylococcus aureus. Put plainly: Antibacterial activity against phenotypic revertant Staphylococcus aureus OM1b:F9 harboring G698T/Gly233Val and compensatory A776T/Lys259Ile mutant menB gene by Etest method.

Turning to GENTAMICIN, the MIC in the test on Staphylococcus aureus [1] was 16 µg/mL; against Staphylococcus aureus [2], 0.32 µg/mL; against Staphylococcus aureus [3] it was 12 µg/mL; in the test on Staphylococcus aureus [4], 0.19 µg/mL; against Staphylococcus aureus [5], 0.125 µg/mL; in the test with Staphylococcus aureus [6], 8 µg/mL. The MIC in the test with Staphylococcus aureus [7], with Staphylococcus aureus [8], in the test on Staphylococcus aureus [9] and against Staphylococcus aureus [10] was 0.125 µg/mL each time.
